According to the NIST ThermoML archive (doi:10.1016/j.jct.2012.06.031):

Assay: xn = mol fraction of the nth substance listed
Settings: 101 kPa, Liquid; for viscosity: Concentric cylinders viscometry; for mass density: Vibrating tube method

c1ccncc1 [pyridine] + CCCO
Settings	mass density [kg/m3]	viscosity [mPa·s]
288.15 K, x1 = 0.1001	829.179	2.059
288.15 K, x1 = 0.1998	849.304	1.752
288.15 K, x1 = 0.2999	868.538	1.533
288.15 K, x1 = 0.3998	887.029	1.38
288.15 K, x1 = 0.5	904.882	1.258
288.15 K, x1 = 0.5999	922.323	1.189
288.15 K, x1 = 0.7	939.461	1.127
288.15 K, x1 = 0.8	956.178	1.091
288.15 K, x1 = 0.8998	972.394	1.065
288.15 K, x1 = 1	988.061	1.03
293.15 K, x1 = 0.1001	825.041	1.839
293.15 K, x1 = 0.1998	845.036	1.577
293.15 K, x1 = 0.2999	864.154	1.392
293.15 K, x1 = 0.3998	882.542	1.261
293.15 K, x1 = 0.5	900.296	1.156
293.15 K, x1 = 0.5999	917.643	1.096
293.15 K, x1 = 0.7	934.697	1.043
293.15 K, x1 = 0.8	951.331	1.012
293.15 K, x1 = 0.8998	967.464	0.9891
293.15 K, x1 = 1	983.038	0.9588
298.15 K, x1 = 0.1001	820.881	1.651
298.15 K, x1 = 0.1998	840.744	1.426
298.15 K, x1 = 0.2999	859.747	1.269
298.15 K, x1 = 0.3998	878.034	1.157
298.15 K, x1 = 0.5	895.691	1.066
298.15 K, x1 = 0.5999	912.947	1.014
298.15 K, x1 = 0.7	929.913	0.9678
298.15 K, x1 = 0.8	946.465	0.942
298.15 K, x1 = 0.8998	962.52	0.9212
298.15 K, x1 = 1	978.006	0.8943
303.15 K, x1 = 0.1001	816.69	1.488
303.15 K, x1 = 0.1998	836.425	1.291
303.15 K, x1 = 0.2999	855.316	1.165
303.15 K, x1 = 0.3998	873.5	1.064
303.15 K, x1 = 0.5	891.065	0.9865
303.15 K, x1 = 0.5999	908.231	0.9414
303.15 K, x1 = 0.7	925.114	0.9013
303.15 K, x1 = 0.8	941.586	0.879
303.15 K, x1 = 0.8998	957.564	0.8608
303.15 K, x1 = 1	972.967	0.8355
308.15 K, x1 = 0.1001	812.466	1.355
308.15 K, x1 = 0.1998	832.074	1.179
308.15 K, x1 = 0.2999	850.857	1.065
308.15 K, x1 = 0.3998	868.942	0.9819
308.15 K, x1 = 0.5	886.415	0.9149
308.15 K, x1 = 0.5999	903.494	0.8753
308.15 K, x1 = 0.7	920.29	0.8408
308.15 K, x1 = 0.8	936.687	0.8222
308.15 K, x1 = 0.8998	952.593	0.8059
308.15 K, x1 = 1	967.913	0.7837
313.15 K, x1 = 0.1001	808.203	1.205
313.15 K, x1 = 0.1998	827.676	1.076
313.15 K, x1 = 0.2999	846.364	0.9804
313.15 K, x1 = 0.3998	864.355	0.9082
313.15 K, x1 = 0.5	881.735	0.8506
313.15 K, x1 = 0.5999	898.73	0.8167
313.15 K, x1 = 0.7	915.449	0.786
313.15 K, x1 = 0.8	931.765	0.7718
313.15 K, x1 = 0.8998	947.604	0.7566
313.15 K, x1 = 1	962.849	0.7354
318.15 K, x1 = 0.1001	803.899	1.103
318.15 K, x1 = 0.1998	823.264	0.9855
318.15 K, x1 = 0.2999	841.834	0.9038
318.15 K, x1 = 0.3998	859.731	0.8426
318.15 K, x1 = 0.5	877.027	0.7926
318.15 K, x1 = 0.5999	893.938	0.7629
318.15 K, x1 = 0.7	910.581	0.7363
318.15 K, x1 = 0.8	926.83	0.7244
318.15 K, x1 = 0.8998	942.596	0.711
318.15 K, x1 = 1	957.769	0.6912
323.15 K, x1 = 0.1001	799.541	1.009
323.15 K, x1 = 0.1998	818.793	0.9116
323.15 K, x1 = 0.2999	837.265	0.844
323.15 K, x1 = 0.3998	855.071	0.7875
323.15 K, x1 = 0.5	872.286	0.7452
323.15 K, x1 = 0.5999	889.121	0.719
323.15 K, x1 = 0.7	905.688	0.6954
323.15 K, x1 = 0.8	921.867	0.6813
323.15 K, x1 = 0.8998	937.566	0.6741
323.15 K, x1 = 1	952.673	0.6507
